Measured values published in PubChem BioAssay AID1259407 (Chemical Carcinogenesis Research Information System (CCRIS), 2018).
Active and inactive are the calls of the source. The rule behind the calls is not given here.

System: CCRIS mutagenicity, Ames/micronucleus/aberration tests
Assay: CCRIS mutagenicity studies
[1] = Test System: AMES SALMONELLA TYPHIMURIUM, Strain/Indicator: TA1537, Metabolic Activation: NONE, Method: STANDARD PLATE
[2] = Test System: AMES SALMONELLA TYPHIMURIUM, Strain/Indicator: TA100, Metabolic Activation: NONE, Method: STANDARD PLATE
[3] = Test System: AMES SALMONELLA TYPHIMURIUM, Strain/Indicator: TA98, Metabolic Activation: NONE, Method: STANDARD PLATE
[4] = Test System: AMES SALMONELLA TYPHIMURIUM, Strain/Indicator: TA97, Metabolic Activation: NONE, Method: PREINCUBATION
[5] = Test System: AMES SALMONELLA TYPHIMURIUM, Strain/Indicator: TA98, Metabolic Activation: NONE, Method: PREINCUBATION
[6] = Test System: AMES SALMONELLA TYPHIMURIUM, Strain/Indicator: TA100, Metabolic Activation: NONE, Method: PREINCUBATION

O=C1CC(O)C(O)c2ccc3c4c(ccc3c21)CCC4 (stereo not given)
mutagenic call (Test System: AMES SALMONELLA TYPHIMURIUM, Strain/Indicator: TA100, Metabolic Activation: RAT, LIVER, MICROSOMES, 15,16-DIHYDROCYCLOPENTA[A]PHENANTHREN-17-ONE, Method: STANDARD PLATE): inactive; negative | mutagenic call (Test System: AMES SALMONELLA TYPHIMURIUM, Strain/Indicator: TA100, Metabolic Activation: RAT, LIVER, MICROSOMES, AROCLOR 1254, Method: STANDARD PLATE): active; positive | mutagenic call (Test System: AMES SALMONELLA TYPHIMURIUM, Strain/Indicator: TA100, Metabolic Activation: RAT, LIVER, MICROSOMES, BENZO[A]PYRENE, Method: STANDARD PLATE): active; positive | mutagenic call (Test System: AMES SALMONELLA TYPHIMURIUM, Strain/Indicator: TA100, Metabolic Activation: RAT, LIVER, MICROSOMES, CLOFIBRATE, Method: STANDARD PLATE): inactive; negative | mutagenic call (Test System: AMES SALMONELLA TYPHIMURIUM, Strain/Indicator: TA100, Metabolic Activation: RAT, LIVER, MICROSOMES, DEXAMETHASONE, Method: STANDARD PLATE): inactive; negative | mutagenic call (Test System: AMES SALMONELLA TYPHIMURIUM, Strain/Indicator: TA100, Metabolic Activation: RAT, LIVER, MICROSOMES, ISONIAZID, Method: STANDARD PLATE): inactive; negative | mutagenic call (Test System: AMES SALMONELLA TYPHIMURIUM, Strain/Indicator: TA100, Metabolic Activation: RAT, LIVER, MICROSOMES, PHENOBARBITONE, Method: STANDARD PLATE): inactive; negative

CN(C)CCNC(=O)c1cccc2cc3ccccc3nc12
mutagenic call [1]: active; positive

COc1nsc2ccc([N+](=O)[O-])cc12
mutagenic call [2]: active; positive

c1ccc(-c2nc(-c3ccccc3)c(-c3ccccc3)[nH]2)cc1
mutagenic call [3]: active; positive | mutagenic call (Test System: AMES SALMONELLA TYPHIMURIUM, Strain/Indicator: TA98, Metabolic Activation: RAT LIVER S-9, 3-METHYLCHOLANTHRENE, SODIUM PHENOBARBITAL, Method: STANDARD PLATE): inactive; negative | mutagenic call [2]: active; positive | mutagenic call (Test System: AMES SALMONELLA TYPHIMURIUM, Strain/Indicator: TA100, Metabolic Activation: RAT LIVER S-9, 3-METHYLCHOLANTHRENE, SODIUM PHENOBARBITAL, Method: STANDARD PLATE): inactive; negative

CC(=O)c1cc2c(cc1C)C(C)(C)C(C)CC2(C)C (stereo not given)
mutagenic call [4]: inactive; negative | mutagenic call (Test System: AMES SALMONELLA TYPHIMURIUM, Strain/Indicator: TA97, Metabolic Activation: NONE, Method: STANDARD PLATE): inactive; negative | mutagenic call (Test System: AMES SALMONELLA TYPHIMURIUM, Strain/Indicator: TA97, Metabolic Activation: RAT LIVER S-9, AROCLOR 1254, Method: STANDARD PLATE): inactive; negative | mutagenic call (Test System: AMES SALMONELLA TYPHIMURIUM, Strain/Indicator: TA97, Metabolic Activation: RAT LIVER S-9, PHENOBARBITAL, BETA-NAPHTHOFLAVONE, Method: PREINCUBATION): inactive; negative | mutagenic call (Test System: AMES SALMONELLA TYPHIMURIUM, Strain/Indicator: TA97, Metabolic Activation: RAT LIVER S-9, PHENOBARBITAL, BETA-NAPHTHOFLAVONE, Method: STANDARD PLATE): inactive; negative | mutagenic call [5]: inactive; negative | mutagenic call [3]: inactive; negative | mutagenic call (Test System: AMES SALMONELLA TYPHIMURIUM, Strain/Indicator: TA98, Metabolic Activation: RAT LIVER S-9, AROCLOR 1254, Method: STANDARD PLATE): inactive; negative | mutagenic call (Test System: AMES SALMONELLA TYPHIMURIUM, Strain/Indicator: TA98, Metabolic Activation: RAT LIVER S-9, PHENOBARBITAL, BETA-NAPHTHOFLAVONE, Method: PREINCUBATION): inactive; negative | mutagenic call (Test System: AMES SALMONELLA TYPHIMURIUM, Strain/Indicator: TA98, Metabolic Activation: RAT LIVER S-9, PHENOBARBITAL, BETA-NAPHTHOFLAVONE, Method: STANDARD PLATE): inactive; negative | mutagenic call [6]: inactive; negative | mutagenic call [2]: inactive; negative | mutagenic call (Test System: AMES SALMONELLA TYPHIMURIUM, Strain/Indicator: TA100, Metabolic Activation: RAT LIVER S-9, AROCLOR 1254, Method: STANDARD PLATE): inactive; negative | mutagenic call (Test System: AMES SALMONELLA TYPHIMURIUM, Strain/Indicator: TA100, Metabolic Activation: RAT LIVER S-9, PHENOBARBITAL, BETA-NAPHTHOFLAVONE, Method: PREINCUBATION): inactive; negative | mutagenic call (Test System: AMES SALMONELLA TYPHIMURIUM, Strain/Indicator: TA100, Metabolic Activation: RAT LIVER S-9, PHENOBARBITAL, BETA-NAPHTHOFLAVONE, Method: STANDARD PLATE): inactive; negative | mutagenic call (Test System: AMES SALMONELLA TYPHIMURIUM, Strain/Indicator: TA102, Metabolic Activation: NONE, Method: PREINCUBATION): inactive; negative | mutagenic call (Test System: AMES SALMONELLA TYPHIMURIUM, Strain/Indicator: TA102, Metabolic Activation: NONE, Method: STANDARD PLATE): inactive; negative | mutagenic call (Test System: AMES SALMONELLA TYPHIMURIUM, Strain/Indicator: TA102, Metabolic Activation: RAT LIVER S-9, AROCLOR 1254, Method: STANDARD PLATE): inactive; negative | mutagenic call (Test System: AMES SALMONELLA TYPHIMURIUM, Strain/Indicator: TA102, Metabolic Activation: RAT LIVER S-9, PHENOBARBITAL, BETA-NAPHTHOFLAVONE, Method: PREINCUBATION): inactive; negative | mutagenic call (Test System: AMES SALMONELLA TYPHIMURIUM, Strain/Indicator: TA102, Metabolic Activation: RAT LIVER S-9, PHENOBARBITAL, BETA-NAPHTHOFLAVONE, Method: STANDARD PLATE): inactive; negative | mutagenic call (Test System: AMES SALMONELLA TYPHIMURIUM, Strain/Indicator: TA1535, Metabolic Activation: NONE, Method: PREINCUBATION): inactive; negative | mutagenic call (Test System: AMES SALMONELLA TYPHIMURIUM, Strain/Indicator: TA1535, Metabolic Activation: NONE, Method: STANDARD PLATE): inactive; negative | mutagenic call (Test System: AMES SALMONELLA TYPHIMURIUM, Strain/Indicator: TA1535, Metabolic Activation: RAT LIVER S-9, PHENOBARBITAL, BETA-NAPHTHOFLAVONE, Method: PREINCUBATION): inactive; negative | mutagenic call (Test System: AMES SALMONELLA TYPHIMURIUM, Strain/Indicator: TA1535, Metabolic Activation: RAT LIVER S-9, PHENOBARBITAL, BETA-NAPHTHOFLAVONE, Method: STANDARD PLATE): inactive; negative | mutagenic call (Test System: AMES SALMONELLA TYPHIMURIUM, Strain/Indicator: TA1537, Metabolic Activation: NONE, Method: PREINCUBATION): inactive; negative | mutagenic call [1]: inactive; negative | mutagenic call (Test System: AMES SALMONELLA TYPHIMURIUM, Strain/Indicator: TA1537, Metabolic Activation: RAT LIVER S-9, PHENOBARBITAL, BETA-NAPHTHOFLAVONE, Method: PREINCUBATION): inactive; negative | mutagenic call (Test System: AMES SALMONELLA TYPHIMURIUM, Strain/Indicator: TA1537, Metabolic Activation: RAT LIVER S-9, PHENOBARBITAL, BETA-NAPHTHOFLAVONE, Method: STANDARD PLATE): inactive; negative | mutagenic call (Test System: ESCHERICHIA COLI, Strain/Indicator: WP2 UVR A, Metabolic Activation: NONE, Method: PREINCUBATION): inactive; negative | mutagenic call (Test System: ESCHERICHIA COLI, Strain/Indicator: WP2 UVR A, Metabolic Activation: NONE, Method: STANDARD PLATE): inactive; negative | mutagenic call (Test System: ESCHERICHIA COLI, Strain/Indicator: WP2 UVR A, Metabolic Activation: RAT LIVER S-9, PHENOBARBITAL, BETA-NAPHTHOFLAVONE, Method: PREINCUBATION): inactive; negative | mutagenic call (Test System: ESCHERICHIA COLI, Strain/Indicator: WP2 UVR A, Metabolic Activation: RAT LIVER S-9, PHENOBARBITAL, BETA-NAPHTHOFLAVONE, Method: STANDARD PLATE): inactive; negative | mutagenic call (Test System: UDS RAT HEPATOCYTES, Metabolic Activation: NONE, Method: NET NUCLEAR GRAIN COUNT): inactive; negative

Oc1ccc2ccc3c4ccc5ccccc5c4c4c(c3c2c1O)O4
mutagenic call [4]: active; positive | mutagenic call [5]: active; positive | mutagenic call [6]: active; positive | mutagenic call (Test System: AMES SALMONELLA TYPHIMURIUM, Strain/Indicator: TA104, Metabolic Activation: NONE, Method: PREINCUBATION): active; positive | mutagenic call (Test System: CHINESE HAMSTER V-79, Strain/Indicator: V-79/6-THIOGUANINE, Metabolic Activation: NONE): active; positive

Cc1cnc2ccc3c(ncn3C)c2n1
mutagenic call [5]: inactive; negative | mutagenic call (Test System: AMES SALMONELLA TYPHIMURIUM, Strain/Indicator: TA98, Metabolic Activation: RAT, LIVER, S-9, AROCLOR 1254, Method: PREINCUBATION): inactive; negative | mutagenic call [6]: inactive; negative | mutagenic call (Test System: AMES SALMONELLA TYPHIMURIUM, Strain/Indicator: TA100, Metabolic Activation: RAT, LIVER, S-9, AROCLOR 1254, Method: PREINCUBATION): inactive; negative
